Assay results as given in ChEMBL document CHEMBL3885881, “DrugMatrix”.

Organism: Rattus norvegicus
Assay: DrugMatrix - Regimen: Daily Repeat
Format: toxicity, organism-based, Sprague-Dawley
Set-up: regimen Daily Repeat, gender Male, age 6-8 weeks
Details: in vivo, po, route oral GAVAGE, vehicle 100 % WATER; for ABSOLUTE BASOPHIL / ABSOLUTE EOSINOPHIL / ABSOLUTE LYMPHOCYTE / ABSOLUTE MONOCYTE / ABSOLUTE SEGMENTED NEUTROPHIL / BASOPHIL / EOSINOPHIL / ERYTHROCYTE COUNT / HEMATOCRIT / HEMOGLOBIN / LEUKOCYTE COUNT / LYMPHOCYTE / MEAN CORPUSCULAR HEMOGLOBIN / MEAN CORPUSCULAR HEMOGLOBIN CONCENTRATION / MEAN CORPUSCULAR VOLUME / MONOCYTE / NEUTROPHIL / NUCLEATED RED BLOOD CELLS / PLATELET COUNT: tissue Blood; for ALANINE AMINOTRANSFERASE / ALBUMIN / ALKALINE PHOSPHATASE / ASPARTATE AMINOTRANSFERASE / BLOOD UREA NITROGEN / CARBON DIOXIDE / CHLORIDE / CHOLESTEROL / CREATINE PHOSPHOKINASE / CREATININE / GLUCOSE / LACTATE DEHYDROGENASE / LIPASE / PHOSPHORUS / POTASSIUM / SODIUM / TOTAL BILIRUBIN / TOTAL PROTEIN / URIC ACID: tissue Plasma
[1] = 0 mg/kg, 72 h, dose level Control, time 3 day
[2] = 0 mg/kg, 120 h, dose level Control, time 5 day
[3] = 50 mg/kg, 72 h, dose level Low, time 3 day
[4] = 50 mg/kg, 120 h, dose level Low, time 5 day

Compound: CC[C@H]1OC(=O)[C@H](C)[C@@H](O[C@H]2C[C@@](C)(OC)[C@@H](O)[C@H](C)O2)[C@H](C)[C@@H](O[C@@H]2O[C@H](C)C[C@H](N(C)C)[C@H]2O)[C@](C)(O)C[C@@H](C)CN(C)[C@H](C)[C@@H](O)[C@]1(C)O [AZITHROMYCIN]
- ABSOLUTE BASOPHIL [1]: 0 CELLS/uL
- ABSOLUTE EOSINOPHIL [1]: 33.67 CELLS/uL
- ABSOLUTE LYMPHOCYTE [1]: 11257.17 CELLS/uL
- ABSOLUTE MONOCYTE [1]: 72.17 CELLS/uL
- ABSOLUTE SEGMENTED NEUTROPHIL [1]: 1220.33 CELLS/uL
- BASOPHIL [1]: 0%
- EOSINOPHIL [1]: 0.33%
- ERYTHROCYTE COUNT [1]: 5 x10E6/uL
- HEMATOCRIT [1]: 32.62%
- HEMOGLOBIN [1]: 12.83 G/DL
- LEUKOCYTE COUNT [1]: 12.58 x10E3/uL
- LYMPHOCYTE [1]: 89%
- MEAN CORPUSCULAR HEMOGLOBIN [1]: 25.67 pg
- MEAN CORPUSCULAR HEMOGLOBIN CONCENTRATION [1]: 39.35 G/DL
- MEAN CORPUSCULAR VOLUME [1]: 65.23 fL
- MONOCYTE [1]: 0.67%
- NEUTROPHIL [1]: 10%
- NUCLEATED RED BLOOD CELLS [1]: 0 /100WBC
- PLATELET COUNT [1]: 1162.5 x10E3/uL
- ALANINE AMINOTRANSFERASE [1]: 45.33 u/L
- ALBUMIN [1]: 3.95 G/DL
- ALKALINE PHOSPHATASE [1]: 356.17 u/L
- ASPARTATE AMINOTRANSFERASE [1]: 81 u/L
- BLOOD UREA NITROGEN [1]: 11 mg/dL
- CARBON DIOXIDE [1]: 29.83 mmol/L
- CHLORIDE [1]: 97.8 MEQ/L
- CHOLESTEROL [1]: 65.17 mg/dL
- CREATINE PHOSPHOKINASE [1]: 211.33 u/L
- CREATININE [1]: 0.11 mg/dL
- GLUCOSE [1]: 164.67 mg/dL
- LACTATE DEHYDROGENASE [1]: 143.17 u/L
- LIPASE [1]: 10.17 u/L
- PHOSPHORUS [1]: 10.88 mg/dL
- POTASSIUM [1]: 6.08 MEQ/L
- SODIUM [1]: 141.54 MEQ/L
- TOTAL BILIRUBIN [1]: 0.23 mg/dL
- TOTAL PROTEIN [1]: 5.65 G/DL
- URIC ACID [1]: 1 mg/dL
- ABSOLUTE BASOPHIL [2]: 0 CELLS/uL
- ABSOLUTE EOSINOPHIL [2]: 48.67 CELLS/uL
- ABSOLUTE LYMPHOCYTE [2]: 9267.83 CELLS/uL
- ABSOLUTE MONOCYTE [2]: 194.33 CELLS/uL
- ABSOLUTE SEGMENTED NEUTROPHIL [2]: 572.5 CELLS/uL
- BASOPHIL [2]: 0%
- EOSINOPHIL [2]: 0.33%
- ERYTHROCYTE COUNT [2]: 5.41 x10E6/uL
- HEMATOCRIT [2]: 36.17%
- HEMOGLOBIN [2]: 13.9 G/DL
- LEUKOCYTE COUNT [2]: 10.08 x10E3/uL
- LYMPHOCYTE [2]: 92.17%
- MEAN CORPUSCULAR HEMOGLOBIN [2]: 25.73 pg
- MEAN CORPUSCULAR HEMOGLOBIN CONCENTRATION [2]: 38.45 G/DL
- MEAN CORPUSCULAR VOLUME [2]: 66.97 fL
- MONOCYTE [2]: 1.83%
- NEUTROPHIL [2]: 5.67%
- NUCLEATED RED BLOOD CELLS [2]: 0.33 /100WBC
- PLATELET COUNT [2]: 1122.33 x10E3/uL
- ALANINE AMINOTRANSFERASE [2]: 52.83 u/L
- ALBUMIN [2]: 4.12 G/DL
- ALKALINE PHOSPHATASE [2]: 367.33 u/L
- ASPARTATE AMINOTRANSFERASE [2]: 88 u/L
- BLOOD UREA NITROGEN [2]: 12.67 mg/dL
- CARBON DIOXIDE [2]: 33.67 mmol/L
- CHLORIDE [2]: 97 MEQ/L
- CHOLESTEROL [2]: 67.5 mg/dL
- CREATINE PHOSPHOKINASE [2]: 358.67 u/L
- CREATININE [2]: 0.14 mg/dL
- GLUCOSE [2]: 152.33 mg/dL
- LACTATE DEHYDROGENASE [2]: 180 u/L
- LIPASE [2]: 10.5 u/L
- PHOSPHORUS [2]: 10.63 mg/dL
- POTASSIUM [2]: 5.99 MEQ/L
- SODIUM [2]: 141.85 MEQ/L
- TOTAL BILIRUBIN [2]: 0.2 mg/dL
- TOTAL PROTEIN [2]: 6.18 G/DL
- URIC ACID [2]: 0.52 mg/dL
- ABSOLUTE BASOPHIL [3]: 0 CELLS/uL
- ABSOLUTE EOSINOPHIL [3]: 0 CELLS/uL
- ABSOLUTE LYMPHOCYTE [3]: 14976.33 CELLS/uL
- ABSOLUTE MONOCYTE [3]: 50 CELLS/uL
- ABSOLUTE SEGMENTED NEUTROPHIL [3]: 1373.67 CELLS/uL
- BASOPHIL [3]: 0%
- EOSINOPHIL [3]: 0%
- ERYTHROCYTE COUNT [3]: 5.24 x10E6/uL
- HEMATOCRIT [3]: 34.53%
- HEMOGLOBIN [3]: 13.33 G/DL
- LEUKOCYTE COUNT [3]: 16.4 x10E3/uL
- LYMPHOCYTE [3]: 91.33%
- MEAN CORPUSCULAR HEMOGLOBIN [3]: 25.5 pg
- MEAN CORPUSCULAR HEMOGLOBIN CONCENTRATION [3]: 38.67 G/DL
- MEAN CORPUSCULAR VOLUME [3]: 65.87 fL
- MONOCYTE [3]: 0.33%
- NEUTROPHIL [3]: 8.33%
- NUCLEATED RED BLOOD CELLS [3]: 0.33 /100WBC
- PLATELET COUNT [3]: 1013.33 x10E3/uL
- ALANINE AMINOTRANSFERASE [3]: 52.67 u/L
- ALBUMIN [3]: 3.97 G/DL
- ALKALINE PHOSPHATASE [3]: 324 u/L
- ASPARTATE AMINOTRANSFERASE [3]: 77 u/L
- BLOOD UREA NITROGEN [3]: 13 mg/dL
- CARBON DIOXIDE [3]: 30 mmol/L
- CHLORIDE [3]: 98.33 MEQ/L
- CHOLESTEROL [3]: 80.67 mg/dL
- CREATINE PHOSPHOKINASE [3]: 196 u/L
- CREATININE [3]: 0.11 mg/dL
- GLUCOSE [3]: 165 mg/dL
- LACTATE DEHYDROGENASE [3]: 154 u/L
- LIPASE [3]: 9.33 u/L
- PHOSPHORUS [3]: 11.37 mg/dL
- POTASSIUM [3]: 6.42 MEQ/L
- SODIUM [3]: 143.1 MEQ/L
- TOTAL BILIRUBIN [3]: 0.2 mg/dL
- TOTAL PROTEIN [3]: 5.87 G/DL
- URIC ACID [3]: 0.83 mg/dL
- ABSOLUTE BASOPHIL [4]: 0 CELLS/uL
- ABSOLUTE EOSINOPHIL [4]: 59.33 CELLS/uL
- ABSOLUTE LYMPHOCYTE [4]: 8956 CELLS/uL
- ABSOLUTE MONOCYTE [4]: 157 CELLS/uL
- ABSOLUTE SEGMENTED NEUTROPHIL [4]: 561 CELLS/uL
- BASOPHIL [4]: 0%
- EOSINOPHIL [4]: 0.67%
- ERYTHROCYTE COUNT [4]: 5.03 x10E6/uL
- HEMATOCRIT [4]: 33.47%
- HEMOGLOBIN [4]: 12.9 G/DL
- LEUKOCYTE COUNT [4]: 9.73 x10E3/uL
- LYMPHOCYTE [4]: 91.67%
- MEAN CORPUSCULAR HEMOGLOBIN [4]: 25.73 pg
- MEAN CORPUSCULAR HEMOGLOBIN CONCENTRATION [4]: 38.57 G/DL
- MEAN CORPUSCULAR VOLUME [4]: 66.63 fL
- MONOCYTE [4]: 1.67%
- NEUTROPHIL [4]: 6%
- NUCLEATED RED BLOOD CELLS [4]: 0 /100WBC
- PLATELET COUNT [4]: 1159 x10E3/uL
- ALANINE AMINOTRANSFERASE [4]: 55.33 u/L
- ALBUMIN [4]: 3.87 G/DL
- ALKALINE PHOSPHATASE [4]: 346 u/L
- ASPARTATE AMINOTRANSFERASE [4]: 85.33 u/L
- BLOOD UREA NITROGEN [4]: 13.33 mg/dL
- CARBON DIOXIDE [4]: 33.67 mmol/L
- CHLORIDE [4]: 98.33 MEQ/L
- CHOLESTEROL [4]: 66.33 mg/dL
- CREATINE PHOSPHOKINASE [4]: 375.33 u/L
- CREATININE [4]: 0.18 mg/dL
- GLUCOSE [4]: 143.67 mg/dL
- LACTATE DEHYDROGENASE [4]: 176.67 u/L
- LIPASE [4]: 12.33 u/L
- PHOSPHORUS [4]: 11.3 mg/dL
- POTASSIUM [4]: 5.91 MEQ/L
- SODIUM [4]: 142.67 MEQ/L
- TOTAL BILIRUBIN [4]: 0.13 mg/dL
- TOTAL PROTEIN [4]: 5.9 G/DL
- URIC ACID [4]: 0.37 mg/dL
